Results published in patent publication US8268827B2, “Pyridazinone derivatives as PARP inhibitors” (Istituto di Ricerche di Biologia Molecolare P. Angeletti …, priority 2007, dated 2012).
Structures can show the parent of a compound that is named as a salt.

Tested on: BRCA-1 silenced HeLa cells (HeLa shBRCA1-GFP)
Assay: Proliferation assay in BRCA-1 silenced HeLa cells
Assay type: cell-based
Settings: Homo sapiens; BRCA1 silenced HeLa cells, 168 hours; read-out: CC50 in the BRCA1 silenced HeLa cells
Outline: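 Antiproliferative effect was read by Celltiter Blue fluorescence after 168 h of compound treatment at 37° C., 5% CO2. Cells were matched HeLa pairs, BRCA1-shRNA (>80% silenced, GFP) versus non-shRNA vector control, in DMEM with 10% FCS.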

SMILES	CC50 [nM]
Cc1c(Cc2ccc(F)c(C(=O)N3CC(=O)N(C4COc5ccccc5C4)C(C)C3)c2)n[nH]c(=O)c1C (stereo not shown) [Example 132, 6-(3-{[4-(3,4-Dihydro-2H-chromen-3-yl)-3-methyl-5-oxopiperazin-1-yl]carbonyl}-4-fluorobenzyl)-4,5-dimethylpyridazin-3(2H)-one trifluoroacetate]	< 50
O=C(c1cc(Cc2cc(C(F)(F)F)c(=O)[nH]n2)ccc1F)N1CCN([C@H]2CCCOC2)C(=O)C1 [Example 153, 6-[4-fluoro-3-({3-oxo-4-[(3S)-tetrahydro-2H-pyran-3-yl]piperazin-1-yl}carbonyl)benzyl]-4-(trifluoromethyl)pyridazin-3(2H)-one]	50 to 500
O=C(c1cc(Cc2cc(C(F)(F)F)c(=O)[nH]n2)ccc1F)N1CCN([C@@H]2CCCOC2)C(=O)C1 [Example 154, 6-[4-fluoro-3-({3-oxo-4-[(3R)-tetrahydro-2H-pyran-3-yl]piperazin-1-yl}carbonyl)benzyl]-4-(trifluoromethyl)pyridazin-3(2H)-one]	< 5000
CCN1C(=O)CN(C(=O)c2cc(Cc3n[nH]c(=O)c(C(F)(F)F)c3C)ccc2F)C[C@@H]1C [Example 155, 6-(3-{[(3S)-4-ethyl-3-methyl-5-oxopiperazin-1-yl]carbonyl}-4-fluorobenzyl)-5-methyl-4-(trifluoromethyl)pyridazin-3(2H)-one]	< 50
CCN1C(=O)CN(C(=O)c2cc(Cc3n[nH]c(=O)c(C(F)(F)F)c3C)ccc2F)C[C@H]1C [Example 156, 6-(3-{[(3R)-4-ethyl-3-methyl-5-oxopiperazin-1-yl]carbonyl}-4-fluorobenzyl)-5-methyl-4-(trifluoromethyl)pyridazin-3(2H)-one]	< 50
Cc1c(Cc2ccc(F)c(C(=O)N3CC(=O)N([C@@H]4CCOC4)[C@@H](C)C3)c2)n[nH]c(=O)c1C [Example 157, 6-[4-fluoro-3-({(3S)-3-methyl-5-oxo-4-[(3R)-tetrahydrofuran-3-yl]piperazin-1-yl}carbonyl)benzyl]-4,5-dimethylpyridazin-3(2H)-one]	50 to 500
Cc1c(Cc2ccc(F)c(C(=O)N3CC(=O)N([C@@H]4CCOC4)[C@H](C)C3)c2)n[nH]c(=O)c1C [Example 158, 6-[4-fluoro-3-({(3R)-3-methyl-5-oxo-4-[(3R)-tetrahydrofuran-3-yl]piperazin-1-yl}carbonyl)benzyl]-4,5-dimethylpyridazin-3(2H)-one]	50 to 500
CCc1cc(Cc2ccc(F)c(C(=O)N3CCN([C@H]4CCc5ccccc5C4)C(=O)C3)c2)n[nH]c1=O [Example 159, 4-ethyl-6-[4-fluoro-3-({3-oxo-4-[(2S)-1,2,3,4-tetrahydronaphthalen-2-yl]piperazin-1-yl}carbonyl)benzyl]pyridazin-3(2H)-one]	< 50
CCc1cc(Cc2ccc(F)c(C(=O)N3CCN([C@@H]4CCc5ccccc5C4)C(=O)C3)c2)n[nH]c1=O [Example 160, 4-ethyl-6-[4-fluoro-3-({3-oxo-4-[(2R)-1,2,3,4-tetrahydronaphthalen-2-yl]piperazin-1-yl}carbonyl)benzyl]pyridazin-3(2H)-one]	50 to 500
CC[C@H](C)N1CCN(C(=O)c2cc(Cc3n[nH]c(=O)c(C)c3C)ccc2F)CC1=O [Example 161, 6-[4-Fluoro-3-({4-[(1S)-1-methylpropyl]-3-oxopiperazin-1-yl}carbonyl)benzyl]-4,5-dimethylpyridazin-3(2H)-one]	< 50
COCC(C)N1CCN(C(=O)c2cc(Cc3n[nH]c(=O)c(C)c3C)ccc2F)CC1=O (stereo not shown) [Example 162, 6-(4-Fluoro-3-{[4-(2-methoxy-1-methylethyl)-3-oxopiperazin-1-yl]carbonyl}benzyl)-4,5-dimethylpyridazin-3(2H)-one]	< 50
Cc1c(Cc2ccc(F)c(C(=O)N3CC(=O)N(C4CCC4)C(C)C3)c2)n[nH]c(=O)c1C (stereo not shown) [Example 163, 6-{3-[(4-Cyclobutyl-3-methyl-5-oxopiperazin-1-yl)carbonyl]-4-fluorobenzyl}-4,5-dimethylpyridazin-3(2H)-one]	< 50
CCC1CN(C(=O)c2cc(Cc3n[nH]c(=O)c(C)c3C)ccc2F)CC(=O)N1C1CCC1 (stereo not shown) [Example 164, 6-{3-[(4-Cyclobutyl-3-ethyl-5-oxopiperazin-1-yl)carbonyl]-4-fluorobenzyl}-4,5-dimethylpyridazin-3(2H)-one]	50 to 500
Cc1c(Cc2ccc(F)c(C(=O)N3CC(=O)N(c4cccc(Cl)c4)C(C)C3)c2)n[nH]c(=O)c1C (stereo not shown) [Example 165, 6-(3-{[4-(3-Chlorophenyl)-3-methyl-5-oxopiperazin-1-yl]carbonyl}-4-fluorobenzyl)-4,5-dimethylpyridazin-3(2H)-one]	< 50
Cc1c(Cc2ccc(F)c(C(=O)N3CC(=O)N(c4ccc(C#N)cc4)[C@@H](C)C3)c2)n[nH]c(=O)c1C [Example 166, 4-((2S)-4-{5-[(4,5-Dimethyl-6-oxo-1,6-dihydropyridazin-3-yl)methyl]-2-fluorobenzoyl}-2-methyl-6-oxopiperazin-1-yl)benzonitrile]	< 50
CCC(CC)N1CCN(C(=O)c2cc(Cc3n[nH]c(=O)c(C)c3C)ccc2F)CC1=O [Example 167, 6-(3-{[4-(1-Ethylpropyl)-3-oxopiperazin-1-yl]carbonyl}-4-fluorobenzyl)-4,5-dimethylpyridazin-3(2H)-one]	< 50
CC[C@@H](C)N1CCN(C(=O)c2cc(Cc3n[nH]c(=O)c(C)c3C)ccc2F)CC1=O [Example 168, 6-[4-Fluoro-3-({4-[(1R)-1-methylpropyl]-3-oxopiperazin-1-yl}carbonyl)benzyl]-4,5-dimethylpyridazin-3(2H)-one]	< 50
COC[C@H](C)N1CCN(C(=O)c2cc(Cc3n[nH]c(=O)c(C)c3C)ccc2F)CC1=O [Example 169, 6-[4-Fluoro-3-({4-[(1S)-2-methoxy-1-methylethyl]-3-oxopiperazin-1-yl}carbonyl)benzyl]-4,5-dimethylpyridazin-3(2H)-one]	< 5000
Cc1c(Cc2ccc(F)c(C(=O)N3CCN(CC(C)(C)O)C(=O)C3)c2)n[nH]c(=O)c1C [Example 173, 6-(4-Fluoro-3-{[4-(2-hydroxy-2-methylpropyl)-3-oxopiperazin-1-yl]carbonyl}benzyl)-4,5-dimethylpyridazin-3(2H)-one]	< 5000
Cc1c(Cc2ccc(F)c(C(=O)N3CC(=O)N(c4ccc(C#N)c(F)c4)[C@@H](C)C3)c2)n[nH]c(=O)c1C [Example 174, 4-((2S)-4-{5-[(4,5-Dimethyl-6-oxo-1,6-dihydropyridazin-3-yl)methyl]-2-fluorobenzoyl}-2-methyl-6-oxopiperazin-1-yl)-2-fluorobenzonitrile]	< 50
Cc1c(Cc2ccc(F)c(C(=O)N3CC(=O)N(C4CCC4)[C@H](C)C3)c2)n[nH]c(=O)c1C [Example 175, 6-(3-{[(3R)-4-Cyclobutyl-3-methyl-5-oxopiperazin-1-yl]carbonyl}-4-fluorobenzyl)-4,5-dimethylpyridazin-3(2H)-one]	< 50
Cc1c(Cc2ccc(F)c(C(=O)N3CC(=O)N(c4cccc(Cl)c4)[C@@H](C)C3)c2)n[nH]c(=O)c1C [Example 177, 6-(3-{[(3S)-4-(3-Chlorophenyl)-3-methyl-5-oxopiperazin-1-yl]carbonyl}-4-fluorobenzyl)-4,5-dimethylpyridazin-3(2H)-one]	< 50
